Read-outs that look alike come from different tables or passages of the source.
How the values were obtained:
Assay in all cases: Cell proliferation inhibition, CellTiter-Glo
Format in all cases: cell-based
[1] = target: Ba/F3-FL-EGFR (del19-E746-A750/T790M) (Homo sapiens, UniProt P00533, DEL746-750/T790M, cells depend on it)
Description: (§1) AdenosineTri-Phosphate (ATP) is an energy carrier shared by various life activities in nature, and is the smallest unit of energy storage and transfer. The CellTiter-Glo™ living cell assay kit uses luciferase as a detector, and luciferase requires the participation of ATP in the process of luminescence. CellTiter-Glo™ reagent is added to a cell culture medium, and the luminescence value is measured. The light signal is directly proportional to the amount of ATP in the system, and ATP is positively correlated with the number of living cells. Therefore, cell proliferation can be detected by detecting ATP content with the CellTiter-Glo kit. In this assay, the cell lines were Ba/F3-FL-EGFR (L858R/T790M/C797S), Ba/F3-FL-EGFR (WT), Ba/F3-FL-EGFR (L858R), Ba/F3-FL-EGFR (del19-S752-I759), Ba/F3-FL-EGFR (del19-E746-A750/T790M/C797S), Ba/F3-FL-EGFR (L858R/T790M), Ba/F3-FL-EGFR (del19-E746-A750/T790M), Ba/F3-TEL-EGFR (L858R/C797S), Ba/F3-FL-EGFR (del19-E746-A750/C797S) stably transfected cell lines.
(§2) The cell lines were cultured in an incubator at 37° C. and 5% CO2. The cells were periodically passaged, and cells in logarithmic growth phase were taken for plating.
(§3) a) DMSO was used to prepare a 10 mM solution of the compound to be tested, and then the compound to be tested was diluted to 0.3 or 1 mM with DMSO.
(§4) b) Preparation of 1000× compound storage plate (tube): DMSO was used to dilute by 3-fold gradient from the highest concentration to the lowest concentration, with a total of 9 concentrations.
(§5) c) Preparation of 20× compound working solution: 49 μL of cell culture medium was added to a flat-bottomed 96-well transparent drug plate, and 1 μL of compound was pipetted from the 1000× compound storage plate to the cell culture medium of the 96-well transparent drug plate. 1 μL of DMSO was added to the vehicle control. After adding compound or DMSO, the well content was mixed to uniform by aspiration and expelling with pipette.
(§6) a) Cells were stained with trypan blue and viable cells were counted. The cell viability rate was required to be above 90%.
(§7) b) 95 μL of cell suspension (2000 cells/well) was added to each well of the compound detection cell plate, and culture medium without cells (containing 0.1% DMSO) was added to the Min control well.
(§8) c) Dosing in the compound detection cell plate: 5 μL of 20× compound working solution was added to the cell culture plate. 5 μL of DMSO-cell culture mixture was added to the Max control. The final concentration of DMSO was 0.1%.
(§9) d) The culture plate was incubated in an incubator at 37° C., 5% CO2 for 72 hours.
(§10) The following steps were performed according to the instruction of Promega CellTiter-Glo luminescence cell viability detection kit (Promega-G7573). • a) The CellTiter-Glo buffer was thawed and allowed to stand to reach room temperature; • b) CellTiter-Glo substrate was allowed to stand to reach room temperature; • c) CellTiter-Glo buffer was added to CellTiter-Glo substrate in a bottle to dissolve the substrate to formulate CellTiter-Glo working solution; • d) The working solution was vortexed slowly for fully dissolution; • e) The cell culture plates were taken out and allowed to stand for 10 minutes to equilibrate to room temperature; • f) 50 μL (equal to half the volume of cell culture solution in each well) of Cell Titer-Glo working solution was added into each well. • g) The culture plates were shaken on an orbital shaker for 2 minutes to induce cell lysis; • h) The culture plates were left at room temperature for 10 minutes to stabilize the luminescence signal; • i) The luminous signal was detected on the PerkinElmer EnVision®2105 plate reader.
(§11) By PerkinElmer EnVision®2105 reading, the corresponding […] value RLU for each well was yielded.
(§12) Cell proliferation inhibition rate (Inhibition Rate) data were processed using the following formula:
(§13) Inhibition Rate (Inh %)=100−(RLUDrug−RLUMin)/(RLUMax−RLUMin)*100%. […]

[2] = target: Ba/F3-FL-EGFR (L858R/T790M) (Homo sapiens, UniProt P00533, T790M/L858R, cells depend on it)
Description: as §1, §2, §3, §4, §5, §6, §7, §8, §9, §10, §11, §12, §13

Ba/F3-FL-EGFR (WT) = Ba/F3-FL-EGFR (WT) (Homo sapiens, UniProt P00533)
Description: as §1, §2, §3, §4, §5, §6, §7, §8, §9, §10, §11, §12, §13

Ba/F3-FL-EGFR (L858R) = Ba/F3-FL-EGFR (L858R) (Homo sapiens, UniProt P00533, L858R, cells depend on it); conditions: 72 hours, read-out: Cell half-maximal inhibition concentration IC50 Ba/F3-FL-EGFR (L858R)
Description: as §1, §2, §3, §4, §5, §6, §7, §8, §9, §10, §11, §12, §13

[3] = target: T1, Ba/F3-TEL-EGFR (L858R/C797S) (Homo sapiens, UniProt P00533, C797S/L858R, cells depend on it)
T1 construct: fused on or other part: TEL (ETV6) N-terminal oligomerising part fused to the EGFR kinase part; P41212 (Transcription factor ETV6)
Description: as §1, §2, §3, §4, §5, §6, §7, §8, §9, §10, §11, §12, §13

[4] = target: Ba/F3-FL-EGFR (del19-S752-I759) (Homo sapiens, UniProt P00533, DEL752-759, cells depend on it); conditions: 72 hours, read-out: Cell half-maximal inhibition concentration IC50 Ba/F3-FL-EGFR (del19-S752-I759)
Description: as §1, §2, §3, §4, §5, §6, §7, §8, §9, §10, §11, §12, §13

[5] = target: Ba/F3-FL-EGFR (del19-E746-A750/T790M/C797S) (Homo sapiens, UniProt P00533, DEL746-750/T790M/C797S, cells depend on it); conditions: 72 hours, read-out: Cell half-maximal inhibition concentration IC50 Ba/F3-FL-EGFR (del19-E746-A750/T790M/C797S)
Description: as §1, §2, §3, §4, §5, §6, §7, §8, §9, §10, §11, §12, §13

[6] = 72 hours, read-out: Cell half-maximal inhibition concentration IC50 Ba/F3-FL-EGFR (del19-E746-A750/T790M)
[7] = 72 hours, read-out: Cell half-maximal inhibition concentration IC50 Ba/F3-FL-EGFR (L858R/T790M)
[8] = 72 hours, read-out: Cell half-maximal inhibition concentration IC50 Ba/F3-FL-EGFR (WT)
[9] = 72 hours, read-out: Cell half-maximal inhibition concentration IC50 Ba/F3-TEL-EGFR (L858R/C797S)

Ba/F3-FL-EGFR (L858R), sequence (P00533 whole entry L858R): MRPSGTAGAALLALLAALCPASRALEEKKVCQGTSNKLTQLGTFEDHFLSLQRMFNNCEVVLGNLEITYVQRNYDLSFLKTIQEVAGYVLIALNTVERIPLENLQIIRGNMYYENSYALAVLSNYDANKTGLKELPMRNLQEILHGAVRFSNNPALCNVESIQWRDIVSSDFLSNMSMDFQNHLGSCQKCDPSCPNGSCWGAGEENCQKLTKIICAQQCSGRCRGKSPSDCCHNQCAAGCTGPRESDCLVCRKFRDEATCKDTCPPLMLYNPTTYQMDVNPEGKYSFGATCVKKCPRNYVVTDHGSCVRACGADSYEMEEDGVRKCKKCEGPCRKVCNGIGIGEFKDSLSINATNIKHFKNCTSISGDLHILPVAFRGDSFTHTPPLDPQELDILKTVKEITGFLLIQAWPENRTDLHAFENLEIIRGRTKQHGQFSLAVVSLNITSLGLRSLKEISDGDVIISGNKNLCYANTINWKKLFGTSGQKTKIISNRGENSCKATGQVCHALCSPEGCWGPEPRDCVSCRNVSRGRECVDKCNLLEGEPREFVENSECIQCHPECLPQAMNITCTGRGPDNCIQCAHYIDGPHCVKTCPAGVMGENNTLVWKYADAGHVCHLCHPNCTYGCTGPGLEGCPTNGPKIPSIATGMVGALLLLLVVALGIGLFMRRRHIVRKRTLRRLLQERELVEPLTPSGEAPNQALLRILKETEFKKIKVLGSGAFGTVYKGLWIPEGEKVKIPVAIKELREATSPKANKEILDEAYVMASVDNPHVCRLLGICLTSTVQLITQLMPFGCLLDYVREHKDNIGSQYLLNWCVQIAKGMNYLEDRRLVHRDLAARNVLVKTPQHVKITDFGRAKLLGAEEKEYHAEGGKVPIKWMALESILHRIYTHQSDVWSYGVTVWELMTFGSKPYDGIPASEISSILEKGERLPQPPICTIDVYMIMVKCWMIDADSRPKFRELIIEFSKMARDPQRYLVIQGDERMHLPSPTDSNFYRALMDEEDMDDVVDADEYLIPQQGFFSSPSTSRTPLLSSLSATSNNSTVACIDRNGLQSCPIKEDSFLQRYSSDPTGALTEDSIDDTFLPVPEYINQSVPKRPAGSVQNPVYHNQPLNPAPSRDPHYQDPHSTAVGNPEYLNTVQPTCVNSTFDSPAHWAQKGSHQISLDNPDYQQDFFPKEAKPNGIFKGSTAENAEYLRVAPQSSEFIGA
Ba/F3-FL-EGFR (WT), sequence (P00533 whole entry, change not shown): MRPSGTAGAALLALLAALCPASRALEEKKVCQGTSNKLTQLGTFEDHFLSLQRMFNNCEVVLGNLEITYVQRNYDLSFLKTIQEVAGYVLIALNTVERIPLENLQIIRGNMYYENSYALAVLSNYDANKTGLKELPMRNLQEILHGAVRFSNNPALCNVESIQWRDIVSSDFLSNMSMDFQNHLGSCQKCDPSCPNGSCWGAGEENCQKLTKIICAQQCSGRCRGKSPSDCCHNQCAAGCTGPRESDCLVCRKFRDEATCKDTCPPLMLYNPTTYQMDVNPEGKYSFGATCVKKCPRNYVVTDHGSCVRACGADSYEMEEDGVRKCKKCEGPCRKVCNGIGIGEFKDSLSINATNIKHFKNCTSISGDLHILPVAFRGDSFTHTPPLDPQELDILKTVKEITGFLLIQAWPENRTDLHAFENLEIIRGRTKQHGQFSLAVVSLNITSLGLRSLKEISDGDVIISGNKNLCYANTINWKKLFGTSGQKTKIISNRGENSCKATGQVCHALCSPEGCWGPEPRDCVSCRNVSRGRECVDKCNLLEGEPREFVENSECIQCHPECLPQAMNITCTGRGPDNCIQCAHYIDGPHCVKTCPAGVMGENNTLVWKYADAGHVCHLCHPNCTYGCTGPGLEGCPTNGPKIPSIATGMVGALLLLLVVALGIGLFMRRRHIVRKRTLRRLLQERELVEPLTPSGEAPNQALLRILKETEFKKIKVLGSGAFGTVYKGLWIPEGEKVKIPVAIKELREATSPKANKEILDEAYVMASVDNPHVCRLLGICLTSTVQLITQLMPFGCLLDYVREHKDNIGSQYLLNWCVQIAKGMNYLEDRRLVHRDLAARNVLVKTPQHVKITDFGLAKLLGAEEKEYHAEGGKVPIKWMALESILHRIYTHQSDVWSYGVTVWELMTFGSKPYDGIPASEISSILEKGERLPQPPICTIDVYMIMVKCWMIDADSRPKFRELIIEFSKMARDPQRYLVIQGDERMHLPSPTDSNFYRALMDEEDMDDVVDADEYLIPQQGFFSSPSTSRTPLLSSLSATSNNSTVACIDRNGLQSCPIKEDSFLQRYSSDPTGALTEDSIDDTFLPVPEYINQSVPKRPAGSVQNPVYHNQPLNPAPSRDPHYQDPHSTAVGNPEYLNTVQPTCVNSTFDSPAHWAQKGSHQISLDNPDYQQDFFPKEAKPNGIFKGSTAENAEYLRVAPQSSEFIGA
Ba/F3-FL-EGFR (del19-E746-A750/T790M), sequence (P00533 with tags, fused parts or gaps DEL746-750/T790M): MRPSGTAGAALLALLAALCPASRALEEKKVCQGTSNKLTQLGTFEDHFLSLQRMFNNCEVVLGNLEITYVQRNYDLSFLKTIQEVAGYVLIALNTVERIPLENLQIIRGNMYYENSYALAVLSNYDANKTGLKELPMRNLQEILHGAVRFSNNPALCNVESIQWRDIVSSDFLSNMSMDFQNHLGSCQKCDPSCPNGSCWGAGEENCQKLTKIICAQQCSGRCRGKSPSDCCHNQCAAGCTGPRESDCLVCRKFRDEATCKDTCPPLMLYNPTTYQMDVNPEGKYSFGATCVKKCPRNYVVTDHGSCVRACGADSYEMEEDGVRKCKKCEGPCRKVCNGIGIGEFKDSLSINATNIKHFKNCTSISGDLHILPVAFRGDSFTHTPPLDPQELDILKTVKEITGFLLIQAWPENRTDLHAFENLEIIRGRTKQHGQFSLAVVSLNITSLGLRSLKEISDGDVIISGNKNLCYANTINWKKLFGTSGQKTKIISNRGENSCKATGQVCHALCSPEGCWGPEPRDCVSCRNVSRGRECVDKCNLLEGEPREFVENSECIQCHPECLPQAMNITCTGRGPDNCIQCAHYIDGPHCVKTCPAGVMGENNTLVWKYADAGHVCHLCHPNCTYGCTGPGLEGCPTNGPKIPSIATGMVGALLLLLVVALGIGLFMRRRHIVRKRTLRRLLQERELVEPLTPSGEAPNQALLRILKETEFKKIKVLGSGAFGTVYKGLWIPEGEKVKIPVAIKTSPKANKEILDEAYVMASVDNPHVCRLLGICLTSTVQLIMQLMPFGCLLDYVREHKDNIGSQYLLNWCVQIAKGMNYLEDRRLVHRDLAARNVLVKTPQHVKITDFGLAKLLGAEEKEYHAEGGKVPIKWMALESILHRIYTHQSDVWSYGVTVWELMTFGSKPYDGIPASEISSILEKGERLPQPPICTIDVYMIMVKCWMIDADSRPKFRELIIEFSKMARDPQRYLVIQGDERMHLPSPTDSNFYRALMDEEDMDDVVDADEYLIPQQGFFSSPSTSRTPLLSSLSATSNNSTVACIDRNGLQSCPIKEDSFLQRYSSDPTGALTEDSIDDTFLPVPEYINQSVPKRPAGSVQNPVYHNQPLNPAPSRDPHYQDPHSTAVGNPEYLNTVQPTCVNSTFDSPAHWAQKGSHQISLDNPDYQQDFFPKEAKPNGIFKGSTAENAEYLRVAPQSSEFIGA
Ba/F3-FL-EGFR (del19-S752-I759), sequence (P00533 with tags, fused parts or gaps DEL752-759): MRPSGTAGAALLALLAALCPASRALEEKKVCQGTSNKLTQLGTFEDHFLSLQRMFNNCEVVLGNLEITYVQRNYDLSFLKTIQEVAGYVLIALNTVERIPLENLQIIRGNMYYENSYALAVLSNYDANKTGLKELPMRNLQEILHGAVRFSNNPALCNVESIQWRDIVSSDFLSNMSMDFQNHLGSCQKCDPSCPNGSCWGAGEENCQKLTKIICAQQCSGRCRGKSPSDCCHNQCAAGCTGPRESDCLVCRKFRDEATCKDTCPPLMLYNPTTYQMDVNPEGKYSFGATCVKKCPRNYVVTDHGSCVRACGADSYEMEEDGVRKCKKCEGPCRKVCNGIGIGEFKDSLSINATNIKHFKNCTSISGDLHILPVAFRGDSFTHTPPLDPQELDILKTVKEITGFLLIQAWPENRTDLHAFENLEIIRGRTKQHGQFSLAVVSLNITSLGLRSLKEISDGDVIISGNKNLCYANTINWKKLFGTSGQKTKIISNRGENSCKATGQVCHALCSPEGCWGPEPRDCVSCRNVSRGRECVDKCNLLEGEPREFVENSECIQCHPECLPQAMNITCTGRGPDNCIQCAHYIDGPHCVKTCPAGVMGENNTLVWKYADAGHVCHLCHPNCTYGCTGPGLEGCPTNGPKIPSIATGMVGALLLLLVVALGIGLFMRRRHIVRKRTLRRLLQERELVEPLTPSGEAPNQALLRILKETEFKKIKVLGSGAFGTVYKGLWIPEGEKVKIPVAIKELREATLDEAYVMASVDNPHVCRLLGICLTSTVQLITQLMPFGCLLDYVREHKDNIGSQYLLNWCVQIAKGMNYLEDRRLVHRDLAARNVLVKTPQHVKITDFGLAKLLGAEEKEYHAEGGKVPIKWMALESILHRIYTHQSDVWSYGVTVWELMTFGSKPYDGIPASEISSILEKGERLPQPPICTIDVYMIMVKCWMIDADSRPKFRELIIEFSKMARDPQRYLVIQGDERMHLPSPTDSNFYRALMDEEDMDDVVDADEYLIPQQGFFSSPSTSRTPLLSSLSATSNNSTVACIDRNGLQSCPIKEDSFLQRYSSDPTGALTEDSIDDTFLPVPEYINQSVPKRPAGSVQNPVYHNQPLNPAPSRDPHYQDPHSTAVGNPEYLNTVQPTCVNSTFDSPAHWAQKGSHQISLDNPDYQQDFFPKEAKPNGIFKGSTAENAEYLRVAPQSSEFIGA

| Compound | GI50 [1, 6] | GI50 [2, 7] | GI50 (Ba/F3-FL-EGFR (WT); [8]) | GI50 (Ba/F3-FL-EGFR (L858R)) | GI50 [3, 9] | GI50 [4] | GI50 [5] | GI50 ([1]; read-out: Cell half-maximal inhibition concentration IC50 Ba/F3-FL-EGFR (del19-E746-A750/T790M), 72 hours) | GI50 ([2]; read-out: Cell half-maximal inhibition concentration IC50 Ba/F3-FL-EGFR (L858R/T790M), 72 hours) | GI50 (Ba/F3-FL-EGFR (WT); read-out: Cell half-maximal inhibition concentration IC50 Ba/F3-FL-EGFR (WT), 72 hours) | GI50 ([3]; read-out: Cell half-maximal inhibition concentration IC50 Ba/F3-TEL-EGFR (L858R/C797S), 72 hours) |
| --- | --- | --- | --- | --- | --- | --- | --- | --- | --- | --- | --- |
| Cc1cc2cc(n1)-c1cnn(C)c1OC[C@H]1CC[C@H](C1)CN1/C(=N/C2=O)Nc2ccc(N=S(C)(C)=O)cc21 (single isomer, unassigned) [WX-027A] | 0.0019 µM | 0.0143 µM | 0.295 µM | 0.0396 µM | 0.0052 µM | 0.0129 µM | 0.0012 µM | – | – | – | – |
| Cc1cc2cc(n1)-c1cnn(C)c1OCCC[C@@H](C)CN1/C(=N/C2=O)Nc2ccc(N=S(C)(C)=O)cc21 [WX-006] | 0.0008 µM | 0.0129 µM | 0.111 µM | 0.0186 µM | 0.0031 µM | 0.0154 µM | 0.0006 µM | – | – | – | – |
| Cc1cc2cc(n1)-c1cnn(C)c1OCCC[C@@H](C)CN1/C(=N/C2=O)Nc2ccc(N=S3(=O)CCCC3)cc21 [WX-010 (trifluoroacetate)] | 0.0004 µM | 0.0105 µM | 0.086 µM | 0.014 µM | 0.003 µM | 0.0112 µM | 0.0008 µM | – | – | – | – |
| Cc1cc2cc(n1)-c1cnn(C)c1OCCC[C@@H](C)CN1/C(=N/C2=O)Nc2ccc(N=S3(=O)CCOCC3)cc21 [WX-013] | – | – | – | – | – | – | – | 0.0006 µM | 0.0121 µM | 0.123 µM | 0.0031 µM |
| Cc1cc2cc(n1)-c1cnn(C)c1OCCC[C@@H](C)CN1/C(=N/C2=O)Nc2ccc(N=S(C)(C)=O)c(Cl)c21 [WX-019] | 0.0029 µM | 0.0168 µM | 0.303 µM | 0.0422 µM | 0.0073 µM | 0.0156 µM | 0.0013 µM | – | – | – | – |
